The values below are quoted from earlier work in US20210212952A1, “METHOD AND ENCAPSULATED SUBSTANCE FOR TREATING PAIN DUE TO A VARIETY OF DISEASES” (priority 2020, published 2021).

For the data set the following is noted: in vivo, po.

`O=C1CC[C@@]2(O)[C@H]3Cc4ccc(O)c5c4[C@@]2(CCN3CC2CC2)[C@H]1O5` [Naltrexone, naltrexone]: the “absorbed into the blood stream” value is 96%.
